Results as given in patent US6608082B1, “Treatment of erectile dysfunction using isoquinoline compound melanocortin receptor ligands” (Lion Bioscience AG, priority 1998, dated 2003).
Several values for one entry are separate records, joined by “and”; a condition that tells them apart may be missing. Identical values can stand only once. Like-named read-outs stand apart in the source and are kept apart here.

Columns and labels:
[1] = tested on: TNF-α; experiment: Reduction of lipopolysaccharide-induced tumor necrosis factor levels in mice; assay type: in vivo, BALB/c female mice; settings: for % TNF-α Inhibtion, IP 30: 30 μg per mouse; for % TNF-α Inhibtion, IP 300 / % TNF-α Inhibtion, Oral 300: 300 μg per mouse; for % TNF-α Inhibtion, Oral 600: 600 μg per mouse
Method: BALB/c female mice weighing approximately 20 g were placed into a control group and a treated group. Five mg/kg of LPS in 0.9% saline was administered (100 μl to give 100 μg LPS per mouse) by intraperitoneal (IP) injection to all mice. Mice in the treatment group received either 30, 100, 300 or 600 μg of various isoquinoline compounds per mouse in a volume of 100 μl of PBS. Control mice received 100 μl of saline alone. One minute after initial injections all mice received the LPS injection. As a positive control, 100 μg of HP 228 was injected per mouse.
Blood samples were collected from the orbital sinus of treated and control mice 90 minutes or 105 minutes after LPS administration. The plasma was separated by centrifugation at 3000×g for 5 min and stored at −20° C. Samples were thawed and diluted, if TNF-α concentration was greater than 3200 pg/ml, with PBS containing 1% bovine serum albumin, 10% donor horse serum, 1% normal mouse serum, 0.05% TWEEN-20 and 0.05% thimerosal. A 100 μl sample of plasma was assayed by ELISA for TNF-α. Briefly, ELISA plates were coated with hamster anti-mouse TNF-α antibody (Genzyme; Cambridge Mass.). Samples or known concentrations of TNF-α were added to the coated plates and incubated for 2 hr at 37° C. Plates were washed and subsequently incubated with biotinylated rabbit anti-mouse TNG-α for 1 hr at 37° C. Plates were washed and incubated with streptavidin-HRP for 1 hr at 37° C., and HRP activity was detected with hydrogen peroxide and o-phenylenediamine (OPD) using standard immunoassay procedures.
The mean (±SEM) TNF-α level in five mice from each group was determined and the percent reduction in TNF-α levels was calculated.

[2] = target: T1, MCR-1 (Homo sapiens, UniProt Q01726); experiment: Melanocortin receptor binding assay, competition with 125I-HP 467, HEK 293 cells expressing hMCR-1; settings: for IC50: read-out: MC-1 IC50; for effectiveness as MC receptor ligand: binding to MC receptors, Table 1
T1 construct: expressed in transfected cells; host or cells: HEK 293
T1 sequence (Q01726 whole entry): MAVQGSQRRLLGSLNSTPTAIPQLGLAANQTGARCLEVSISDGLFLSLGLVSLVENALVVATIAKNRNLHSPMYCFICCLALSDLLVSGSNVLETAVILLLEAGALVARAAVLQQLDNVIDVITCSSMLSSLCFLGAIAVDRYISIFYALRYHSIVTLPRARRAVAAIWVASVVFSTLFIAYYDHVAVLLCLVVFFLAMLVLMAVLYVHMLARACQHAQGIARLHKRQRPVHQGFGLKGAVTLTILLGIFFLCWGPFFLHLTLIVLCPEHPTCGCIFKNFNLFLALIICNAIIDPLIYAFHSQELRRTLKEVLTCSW
Outline: (§1)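 Intact-cell competition binding, 2.5 hr at 37 °C, in PBS/10% calf serum/1 mM CaCl2; hMCR-4 cells at 4×10^3 per tube, hMCR-1 cells at 2×10^4 per tube. Filtration on BSA/CaCl2-soaked GF/B, cold 50 mM Tris pH 7.4 washes, scintillation count.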

[3] = target: T2, MCR-4 (Homo sapiens, UniProt P32245); experiment: Melanocortin receptor binding assay, competition with 125I-HP 467, HEK 293 cells expressing hMCR-4; settings: read-out: MC-4 IC50
T2 construct: expressed in transfected cells; host or cells: HEK 293
T2 sequence (P32245 whole entry): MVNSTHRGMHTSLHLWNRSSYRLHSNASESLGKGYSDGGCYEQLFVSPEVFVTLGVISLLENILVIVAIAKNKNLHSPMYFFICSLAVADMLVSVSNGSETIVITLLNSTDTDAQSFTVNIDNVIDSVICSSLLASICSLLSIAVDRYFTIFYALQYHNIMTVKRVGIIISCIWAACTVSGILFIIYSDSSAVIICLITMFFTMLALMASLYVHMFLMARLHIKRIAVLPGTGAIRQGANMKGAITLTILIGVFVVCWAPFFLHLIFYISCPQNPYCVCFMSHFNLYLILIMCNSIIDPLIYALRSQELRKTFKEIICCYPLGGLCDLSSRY
Outline: as §1

[4] = target: T1, MCR-1; experiment: cAMP assay for melanocortin receptors, HEK 293 cells expressing MCR-1; assay type: cell-based; settings: for EC50: 50% of maximal cAMP production, read-out: MC-1 EC50 (cAMP); for MC-1 Max (pmole) cAMP produced: maximum amount of cAMP
Method: HEK 293 cells expressing MCR-1, MCR-3, MCR-4 and MCR-5 were used (see Example II). Cells were plated at 20,000 cells per well in a 96-well plate coated with collagen. The next day, cells were pretreated with 75 μl of 0.4 mM 3-isobutyl-1-methylxanthine (IBMX) in low serum medium containing DMEM, 25 mM HEPES, non-essential amino acids, vitamins, 100 units/ml penicillin, 100 μg/ml streptomycin and 0.1% COSMIC CALF SERUM. IBMX is an inhibitor of cAMP phosphodiesterase. The pretreatment was carried out for 10 min at 37° C.
Following pretreatment, 25 μl of diluted isoquinoline compound was added to the wells, and cells were incubated for 15 min at 37° C. Cells were lysed by adding 25 μl saponin lysis buffer and incubating 2 to 5 min. Plates were covered and stored at −20° C.
cAMP concentration was determined by ELISA. Briefly, 96 well ELISA plates were coated with goat anti-cAMP antibody in PBS for 12 to 72 hr at 4° C. 50 μl of sample was mixed with 50 μl of cAMP ELISA buffer containing 1% bovine serum albumin, 10% heat-inactivated donor horse serum, 1% normal mouse serum and 0.05% TWEEN-20 in PBS, and the diluted sample was added to the coated ELISA plate. Standards of known concentrations of cAMP were added to separate wells. 25 μl of 16 ng/ml cAMP-conjugated horse radish peroxidase (HRP) (cAMP-HRP) was added to each well, and the plates were […] at room temperature. Plates were washed and the binding of cAMP-HRP was detected with 3,3′,5,5′-tetramethylbenzidine (TMB) and hydrogen peroxide using standard immunoassay procedures.
Various isoquinoline compounds were tested for their ability to activate MC receptor by measuring cAMP as described in Example III.

[5] = IP, plasma 90 or 105 minutes after LPS, mean ± SEM
[6] = TRG 2406 and TRG 2407 libraries, inhibition of binding of 125I-HP 467
[7] = plasma 90 or 105 minutes after LPS, mean ± SEM
[8] = TRG 2408 and TRG 2409 libraries, inhibition of 125I-HP 467 binding
[9] = competition with 125I-HP 467, HEK 293 cells expressing MCR-1
[10] = competition with 125I-HP 467, HEK 293 cells expressing MCR-4

| SMILES | % TNF-α Inhibtion, IP 30 [1, 5] | % TNF-α Inhibtion, IP 300 [1, 5] | IC50 [2, 6] | IC50 [3, 6] | decrease of TNF-α levels ([1]; LPS treated mice) | inhibiting TNF-α ([1]; LPS treated mice, both i.p. and oral administration) | % TNF-α Inhibtion, Oral 300 [1, 7] | % TNF-α Inhibtion, Oral 600 [1, 7] | EC50 [4] | MC-1 Max (pmole) cAMP produced [4] | specificity for at least one MC receptor over another MC receptor ([2]; MCR-1 versus MCR-4 binding) | IC50 [2, 8] | effectiveness as MC receptor ligand [2] | IC50 [3, 8] | % TNF-α Inhibtion, IP 100 ([1]; IP, 100 μg per mouse, plasma 90 or 105 minutes after LPS, mean ± SEM) | IC50 [2, 9] | IC50 [3, 10] |
| --- | --- | --- | --- | --- | --- | --- | --- | --- | --- | --- | --- | --- | --- | --- | --- | --- | --- |
| CNC(CN)CCCCN1Cc2ccccc2C(CN)C1c1ccc(Cl)cc1Cl (stereo not drawn) [TRG 2407-39] | 24 ± 17% | 72 ± 5 % | 910 nM | 110 nM | – | – | – | – | – | – | – | – | – | – | – | – | – |
| CCNc1ccc(C2C(CNC3CCCCC3)c3ccccc3CN2CCCCC(CN)NC)cc1 (stereo not drawn) [TRG 2408-30] | 30 ± 14% | 78 ± 3 % | – | – | particularly effective at decreasing TNF-α | particularly effective at inhibiting TNF-α | 42 ± 14 % | 74 ± 4 % | 2830 nM | 125.79 pmol | about 10 fold | 1170 nM | particularly effective MC receptor ligands | 45600 nM | – | – | – |
| CCNc1ccc(C2C(CNCc3ccccc3O)c3ccccc3CN2CCCC(CN)NCCc2ccccc2)cc1 (stereo not drawn) [TRG 2408-57] | 76 ± 8 % | 86 ± 2 % | – | – | – | – | 21 ± 11% | 72 ± 7 % | < 100 nM | – | – | 280 nM | particularly effective MC receptor ligands | 6020 nM | 83 ± 2 % and 87 ± 5 % | – | – |
| CCNc1ccc(C2C(CNC3CCCCC3)c3ccccc3CN2CCCC(CN)NCCc2ccccc2)cc1 (stereo not drawn) [TRG 2408-62] | 71 ± 6 % | 84 ± 8 % | – | – | – | – | 45 ± 11% | 35 ± 5% | < 100 nM | – | – | 120 nM | particularly effective MC receptor ligands | 2610 nM | – | – | – |
| CCCCNc1ccc(C2C(CNCc3ccccc3O)c3ccccc3CN2CCCCC(CN)NC)cc1 (stereo not drawn) [TRG 2409-2] | 57 ± 6 % | 65 ± 14% | – | – | – | – | 58 ± 2 % | 65 ± 2 % | 1010 nM | 200 pmol | – | – | particularly effective MC receptor ligands | – | – | 220 nM | 10700 nM |
| CCCCNc1ccc(C2C(CNC3CCCCC3)c3ccccc3CN2CCCCC(CN)NC)cc1 (stereo not drawn) [TRG 2409-14] | 31 ± 7% | 76 ± 7 % | – | – | – | – | 41 ± 9 % | 67 ± 4 % | 870 nM | 170 pmol | – | – | particularly effective MC receptor ligands | – | – | 100 nM | 15100 nM |
